Where two headings read alike, the source gives them in different places.
Tests used:
USP1/UAF1 enzyme = USP1/UAF1 enzyme (Homo sapiens, UniProt O94782); experiment: USP1/UAF1 deubiquitination assay (ubiquitin-rhodamine 110 substrate); format: biochemical; conditions: read-out: USP1 IC50 (Ub-Rho)
Summary of the method: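 0.05 nM USP1/UAF1 was preincubated 10 min with compounds (dose response from 10 μM) in 50 mM Tris-HCl pH 7.8, 0.5 mM EDTA, 0.01% BSA, 1 mM DTT, 0.01% Tween-20. 150 nM ubiquitin-rhodamine 110 started the reaction, read kinetically 30 min at Ex480/Em540; IC50 by four-parameter fit versus no-enzyme and DMSO controls.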

[1] = ADME solubility determination in PBS at pH 2.0 and pH 7.4; format: physicochemical; conditions: phosphate buffered saline, 25 °C, thermodynamic from solid
Description: Certain Compounds of the Disclosure were assessed for ADME solubility at pH 2.0 and pH 7.4.
Stock solutions were prepared by adding each compound to DMSO at a concentration of 10 mM. Samples were prepared by adding 50 μL of each stock solution to separate vials. The vials were loaded onto a 96-well rack and dried. 500 μL of Phosphate Buffered Saline (PBS) pH 7.4 or PBS pH 2.0 were added into each vial. The vials were then shaken at 25° C. and 1,100 rpm for 24 hours.
After 24 hours, the vials were centrifuged at 3220 G and 25° C. for 30 minutes. The supernatant fluid was analyzed by LC-MS/MS against a standard of known concentration. The solubility of each sample was then calculated using the equation below: […]
where DF is the dilution factor.

[2] = Liver microsomal metabolic stability, rat liver microsomes (RLM); conditions: rat, liver microsomes, t1/2 (min) in RLM, 1 μM compound, 1 mg/mL microsomes, NADPH
Description: Samples were prepared by adding 222.5 μL of a master solution (100 mM phosphate buffer and 1 mg/mL liver microsomes (HLM or RLM)) and 25 μL of a 10 mM NADPH solution to incubation plates, which were then warmed for 10 min. Each compound was separately dissolved in DMSO to prepare 10 mM stock solutions, which were then diluted to 100 μM with acetonitrile. A reaction was started by adding 2.5 μL of the 100 μM solution of each compound to separate incubation plates such that the final concentration of for each compound in each plate was 1 μM.
25 μL aliquots of each sample were taken at 0.5, 5, 10, 15, 20 and 30 minutes, and the reaction was stopped by adding 5 volumes of cold acetonitrile with IS (100 nM alprazolam, 200 nM caffeine and 100 nM tolbutamide). The samples were then centrifuged at 3,220 G for 30 minutes, and 100 μL of the supernatant fluid was mixed with 100 μL of ultra-pure H2O.
The samples were then analyzed by LC-MS/MS. Peak areas were determined from extracted ion chromatograms. Slope values (k) were determined by linear regression of the natural logarithm of the remaining percentage of the compound vs. incubation time curve. The in vitro half-life (in vitro t1/2) was determined from the slope value using the following equation:

[3] = Liver microsomal metabolic stability, human liver microsomes (HLM); conditions: human, liver microsomes
[4] = pH 2, aqueous buffer, PBS pH 2.0, 25° C., read-out: Solubility at pH 2.0
[5] = pH 7.4, aqueous buffer, PBS pH 7.4, 25° C., read-out: Solubility at pH 7.4

USP1/UAF1 enzyme, sequence (O94782 whole entry): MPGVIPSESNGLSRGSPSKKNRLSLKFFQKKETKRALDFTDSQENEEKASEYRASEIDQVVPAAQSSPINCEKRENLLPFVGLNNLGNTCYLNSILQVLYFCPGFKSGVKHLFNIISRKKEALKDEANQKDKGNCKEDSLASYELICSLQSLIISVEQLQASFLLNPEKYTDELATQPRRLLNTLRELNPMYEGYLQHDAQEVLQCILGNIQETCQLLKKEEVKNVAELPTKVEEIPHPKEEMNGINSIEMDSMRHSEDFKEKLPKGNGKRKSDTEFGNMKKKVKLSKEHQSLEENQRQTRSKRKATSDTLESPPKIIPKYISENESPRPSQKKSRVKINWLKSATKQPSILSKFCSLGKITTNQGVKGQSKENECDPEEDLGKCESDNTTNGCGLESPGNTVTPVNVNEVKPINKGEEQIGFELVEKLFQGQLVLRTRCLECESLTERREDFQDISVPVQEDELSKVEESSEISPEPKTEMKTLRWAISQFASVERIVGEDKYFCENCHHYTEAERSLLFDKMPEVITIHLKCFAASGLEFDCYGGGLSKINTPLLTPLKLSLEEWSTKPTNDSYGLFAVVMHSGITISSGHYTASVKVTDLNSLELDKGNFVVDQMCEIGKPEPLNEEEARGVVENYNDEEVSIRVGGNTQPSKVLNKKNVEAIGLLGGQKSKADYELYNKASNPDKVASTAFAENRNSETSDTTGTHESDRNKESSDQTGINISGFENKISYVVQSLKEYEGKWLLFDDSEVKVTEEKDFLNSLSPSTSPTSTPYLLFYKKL
USP1/UAF1 enzyme, sequence (Q8TAF3 whole entry partner): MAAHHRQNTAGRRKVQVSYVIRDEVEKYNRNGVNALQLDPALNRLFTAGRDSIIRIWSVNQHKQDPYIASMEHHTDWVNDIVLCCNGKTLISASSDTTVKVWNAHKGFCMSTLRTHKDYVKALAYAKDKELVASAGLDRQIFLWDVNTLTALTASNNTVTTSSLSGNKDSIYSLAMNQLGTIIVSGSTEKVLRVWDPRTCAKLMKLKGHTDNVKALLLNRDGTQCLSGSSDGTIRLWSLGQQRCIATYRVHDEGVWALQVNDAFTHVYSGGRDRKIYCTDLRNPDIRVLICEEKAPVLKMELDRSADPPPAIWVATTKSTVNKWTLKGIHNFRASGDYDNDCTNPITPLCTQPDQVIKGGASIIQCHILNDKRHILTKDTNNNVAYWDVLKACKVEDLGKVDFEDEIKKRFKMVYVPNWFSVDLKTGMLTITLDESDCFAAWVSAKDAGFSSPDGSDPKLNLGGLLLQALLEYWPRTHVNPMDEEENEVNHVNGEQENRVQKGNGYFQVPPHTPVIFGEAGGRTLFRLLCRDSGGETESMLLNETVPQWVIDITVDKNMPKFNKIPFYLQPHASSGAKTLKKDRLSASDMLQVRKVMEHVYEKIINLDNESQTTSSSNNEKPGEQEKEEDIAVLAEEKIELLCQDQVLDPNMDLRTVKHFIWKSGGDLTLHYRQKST

IC50 (USP1/UAF1 enzyme) | solubility at 24 h [1, 4] | solubility at 24 h [1, 5] | half-life at 1 μM [2] | half-life at 1 μM [3] | Compound
< 100 nM | < 10 µM | < 10 µM | < 25 min | < 25 min | Cc1cnn(C(C)C)c1-c1cc2n(n1)CCCN2Cc1ccc(-n2nc(C(F)(F)F)cc2C)cc1 [Example 52, 2-(1-isopropyl-4-methyl-1H-pyrazol-5-yl)-4-(4-(5-methyl-3-(trifluoromethyl)-1H-pyrazol-1-yl)benzyl)-4,5,6,7-tetrahydropyrazolo[1,5-α]pyrimidine]
< 100 nM | < 10 µM | < 10 µM | < 25 min | < 25 min | Cc1cnn(C(C)C)c1-c1cc2n(n1)CCCN2Cc1ccc(-n2nc(C(F)(F)F)cc2C)c(F)c1 [Example 56]
< 100 nM | < 10 µM | < 10 µM | < 25 min | > 25 min | CCn1cc(C(F)(F)F)nc1-c1ccc(CN2C(=O)CCn3nc(-c4c(Cl)cnn4C(C)C)cc32)cc1F [Example 77, 2-(4-chloro-1-isopropyl-1H-pyrazol-5-yl)-4-(4-(1-ethyl-4-(trifluoromethyl)-1H-imidazol-2-yl)-3-fluorobenzyl)-6,7-dihydropyrazolo[1,5-α]pyrimidin-5(4H)-one]
< 100 nM | < 10 µM | < 10 µM | < 25 min | < 25 min | Cc1cn(C)nc1-c1ccc(CN2C(=O)CCn3nc(-c4c(Cl)cnn4C(C)C)cc32)cc1 [Example 93]
< 100 nM | < 10 µM | < 10 µM | > 25 min | > 25 min | CCn1cc(C(F)(F)F)nc1-c1ccc(CN2C(=O)CCn3nc(-c4c(Cl)cnn4C4COC4)cc32)cc1 [Example 154, 2-(4-chloro-1-(oxetan-3-yl)-1H-pyrazol-5-yl)-4-(4-(1-ethyl-4-(trifluoromethyl)-1H-imidazol-2-yl)benzyl)-6,7-dihydropyrazolo[1,5-α]pyrimidin-5(4H)-one]
< 100 nM | < 10 µM | < 10 µM | > 25 min | > 25 min | CCn1cc(C(F)(F)F)nc1-c1ccc(CN2C(=O)CCn3nc(-c4c(C#N)cnn4C(C)C)cc32)cc1 [Example 156]
100 to 500 nM | < 10 µM | < 10 µM | < 25 min | > 25 min | CCn1cc(C(F)(F)F)nc1-c1c(F)cc(CN2C(=O)CCn3nc(-c4c(Cl)cnn4C(C)C)nc32)cc1OC [Example 187]
100 to 500 nM | ≥ 10 µM | < 10 µM | > 25 min | < 25 min | COc1ccnc(C2CC2)c1-c1nc2n(n1)CCC(=O)N2Cc1ccc(-c2nc(C(F)(F)F)cn2C(C)C)c(F)c1 [Example 207]
< 100 nM | < 10 µM | < 10 µM | > 25 min | < 25 min | CCn1cc(C(F)(F)F)nc1-c1ccc(CN2C(=O)CCn3nc(-c4c(Cl)cnn4C(C)C)c(C#N)c32)cc1 [Example 223, 2-(4-chloro-1-isopropyl-1H-pyrazol-5-yl)-4-(4-(1-ethyl-4-(trifluoromethyl)-1H-imidazol-2-yl)benzyl)-5-oxo-4,5,6,7-tetrahydropyrazolo[1,5-α]pyrimidine-3-carbonitrile]
100 to 500 nM | < 10 µM | < 10 µM | > 25 min | > 25 min | CCn1cc(C(F)(F)F)nc1-c1ccc(NC2CCCn3nc(-c4c(Cl)cnn4C(C)C)nc32)cc1F (stereo not shown) [Example 257, 2-(4-chloro-1-isopropyl-1H-pyrazol-5-yl)-N-(4-(1-ethyl-4-(trifluoromethyl)-1H-imidazol-2-yl)-3-fluorophenyl)-5,6,7,8-tetrahydro-[1,2,4]triazolo[1,5-a]pyridin-8-amine]
< 100 nM | ≥ 10 µM | < 10 µM | < 25 min | < 25 min | COc1cccnc1-c1ccc(CN2C(=O)CCn3nc(-c4c(Cl)cnn4C(C)C)cc32)cc1Cl [Example 288]
< 100 nM | ≥ 10 µM | < 10 µM | < 25 min | < 25 min | CC(C)Oc1cccnc1-c1ccc(CN2C(=O)CCn3nc(-c4c(Cl)cnn4C(C)C)cc32)cc1Cl [Example 310]
100 to 500 nM | ≥ 10 µM | < 10 µM | > 25 min | > 25 min | CCn1cc(C(F)(F)F)nc1-c1ccc(CN2C(=O)CCn3nc(-c4c(C(F)F)cnn4C(C)C)cc32)cc1F [Example 328, 2-(4-(difluoromethyl)-1-isopropyl-1H-pyrazol-5-yl)-4-(4-(1-ethyl-4-(trifluoromethyl)-1H-imidazol-2-yl)-3-fluorobenzyl)-6,7-dihydropyrazolo[1,5-α]pyrimidin-5(4H)-one]

Second part, the compound before the results:

Compound | IC50 (USP1/UAF1 enzyme) | solubility at 24 h [1, 4] | solubility at 24 h [1, 5] | half-life at 1 μM [2] | half-life at 1 μM [3]
CCn1cc(C(F)(F)F)nc1-c1ccc(CN2CCCn3nc(-c4c(Cl)cnn4C(C)C)cc32)cc1F [Example 60] | < 100 nM | < 10 µM | < 10 µM | < 25 min | < 25 min
COCc1cc(C(F)(F)F)nn1-c1ccc(CN2C(=O)CCn3nc(-c4c(Cl)cnn4C(C)C)cc32)cc1 [Example 100] | < 100 nM | < 10 µM | < 10 µM | < 25 min | < 25 min
COc1cc(C#N)nn1-c1ccc(CN2C(=O)CCn3nc(-c4c(Cl)cnn4C(C)C)cc32)cc1 [Example 106] | < 100 nM | < 10 µM | < 10 µM | > 25 min | > 25 min
CC(C)n1cc([N+](=O)[O-])nc1-c1ccc(CN2C(=O)CCn3nc(-c4c(Cl)cnn4C(C)C)cc32)cc1 [Example 112] | < 100 nM | < 10 µM | < 10 µM | < 25 min | > 25 min
COc1cc([C@H](C)N2C(=O)CCn3nc(-c4c(OC)ncnc4C4CC4)cc32)ccc1-c1nc(C(F)(F)F)cn1C(C)C [Example 128] | 100 to 500 nM | ≥ 10 µM | < 10 µM | < 25 min | < 25 min
CC(C)n1ncc(Cl)c1-c1cc2n(n1)CCC(=O)N2Cc1ccc(-c2cn(C)c(C(F)(F)F)n2)c(F)c1 [Example 130] | 100 to 500 nM | < 10 µM | < 10 µM | > 25 min | > 25 min
CCn1cc(C(F)(F)F)nc1-c1ccc([C@H](C)N2C(=O)CCn3nc(-c4c(Cl)cnn4C(C)C)nc32)cc1OC [Example 179] | 100 to 500 nM | ≥ 10 µM | < 10 µM | < 25 min | < 25 min
COc1cc(-c2nc(C(F)(F)F)cn2C(C)C)c(F)cc1CN1C(=O)CCn2nc(-c3c(OC)ncnc3C3CC3)nc21 [Example 202] | < 100 nM | < 10 µM | < 10 µM | > 25 min | > 25 min
COc1ncnc(C2CC2)c1-c1nc2n(n1)CCC(=O)N2[C@@H](C)c1ccc(-c2nc(C(F)(F)F)c(Br)n2C)cc1 [Example 205] | < 100 nM | < 10 µM | ≥ 10 µM | > 25 min | < 25 min
CCn1cc(C(F)(F)F)nc1-c1ccc([C@@H](C)N2C(=O)CCn3nc(-c4c(OC(F)F)ncnc4C4CC4)nc32)cc1 [Example 208] | < 100 nM | ≥ 10 µM | ≥ 10 µM | < 25 min | > 25 min
CCn1cc(C(F)(F)F)nc1-c1ccc([C@H](C)N2C(=O)CCn3nc(-c4c(OC(F)F)ncnc4C4CC4)nc32)cc1 [Example 209] | < 100 nM | ≥ 10 µM | < 10 µM | < 25 min | < 25 min
CC(C)n1ncc(Cl)c1-c1cc2n(n1)CC(O)C(=O)N2Cc1ccc(-c2nc(C(F)(F)F)cn2C)cc1 (stereo not drawn) [Example 231, 2-(4-chloro-1-isopropyl-1H-pyrazol-5-yl)-6-hydroxy-4-(4-(1-methyl-4-(trifluoromethyl)-1H-imidazol-2-yl)benzyl)-6,7-dihydropyrazolo[1,5-α]pyrimidin-5(4H)-one] | 100 to 500 nM | < 10 µM | < 10 µM | > 25 min | > 25 min
CC(C)n1ncc(Cl)c1-c1cc2n(n1)CCC(=O)N2Cc1ccc(-c2ncccc2N(C)C)c(Cl)c1 [Example 312] | < 100 nM | ≥ 10 µM | < 10 µM | < 25 min | < 25 min
